These results are taken from PMC10555500, “Evaluation of the Antiproliferative Properties of CpRu Complexes Containing N-Methylated Triazaphosphaadamantane Derivatives” (Bioinorganic Chemistry and Applications, 2023).

In this experiment the target is human serum albumin (HSA) (Homo sapiens, UniProt P02768). Kind of experiment: Binding to human serum albumin by steady-state and time-resolved Trp214 fluorescence. Here is the method:
The stock solutions of HSA were freshly prepared for each experiment by gently dissolving protein in PBS pH 7.4 (tablets from Fisher) for 1 hour to allow protein to completely hydrate. The concentration of the protein in the stock solutions was determined by spectrophotometry using the molar absorption coefficient at 280 nm ε280(HSA) = 36,850 M^−1·cm^−1 [38].
In each essay, all spectroscopic measurements were carried out on individually prepared samples to ensure the same preincubation time at (37.0 ± 0.1)°C, the same % of DMSO in the final samples, and the same exposure to excitation light and to avoid the need for dilution corrections. Moreover, for a direct titration protocol, a highly concentrated stock solution of the compounds in the buffer would be required, which would raise solubility issues. Dimethylsulfoxide (DMSO, from Fisher) was used to prepare concentrated stock solutions of each complex, followed by appropriate dilution to obtain the desired concentration. The DMSO content was kept at 2% (v/v) in PBS pH 7.4 in all samples. Dilutions were carried out immediately before sample preparation.
Fluorescence measurements were performed at 25.0 ± 0.1°C. The final protein concentration in the individually prepared samples (3.72 to 5 μM) was kept constant in each assay, and the complex concentration was varied to obtain desired HSA: Ru-complex molar ratios ranging from 1 : 0.25 to 1 : 10. A control sample containing the same amount of protein and final DMSO content and with no complex was also prepared for each experiment. Appropriate blank samples with no protein but with the same complex concentrations were prepared as well for background correction.
The steady-state fluorescence intensity was measured with excitation at 295 nm, and emission spectra were collected with bandwidths of 4 nm for both excitation and emission. For Stern–Volmer plots, the fluorescence intensity with emission at 340 nm was selected because it is near the maximum emission wavelength (so the sensitivity is close to maximum), but it is further to red in relation to the water Raman scattering peak. These values were corrected for the absorption and emission inner filter effects using the absorbance recorded for each sample at the excitation and emission wavelengths used for the steady-state quenching analysis. For time-resolved fluorescence measurements, the single-photon-counting technique was used with nanoLED N-280 (Horiba Jobin Yvon) as the pulsed excitation source (280 nm) and with emission collected at 350 nm (13 nm emission bandwidth), eliminating the contribution of the emission by tyrosine residues.
The experimental fluorescence intensity decays of HSA in buffer solution can be described by a sum of exponentials:(1) It=∑i=1npiexp−t/τi, where pi and τi are the pre-exponential factors and lifetime of component i, respectively. The amplitude or normalized pre-exponential of each lifetime component αi is pi/Σipi with Σiαi = 1. Fluorescence decays were analysed by an iterative deconvolution method using the TRFA Data Processor software (version 1.4; Minsk, Belarus), and the instrument response function was obtained using scattering by a colloidal suspension of silica (Ludox®, Sigma-Aldrich) diluted in water. Criteria for judging the quality of the fit were reduced χ^2 close to 1 and a random distribution of weighted residuals and residual autocorrelation.
To evaluate changes in the quantum yield by processes affecting the fluorescence lifetimes of HSA, the amplitude-weighted mean fluorescence lifetime ( τ¯ ) was calculated using the following equation:(2) τ¯=∑i=1nαiτi.
The stock solutions of HSA were freshly prepared for each experiment by gently dissolving the protein in PBS pH 7.4 (tablets from Fisher) for 1 hour to allow the protein to completely hydrate. The concentration of protein in the stock solutions was determined by spectrophotometry using the molar absorption coefficient at 280 nm ε280(HSA) = 36,850 M^−1 cm^−1.[8] […]

Sequence of human serum albumin (HSA) (P02768 25-609): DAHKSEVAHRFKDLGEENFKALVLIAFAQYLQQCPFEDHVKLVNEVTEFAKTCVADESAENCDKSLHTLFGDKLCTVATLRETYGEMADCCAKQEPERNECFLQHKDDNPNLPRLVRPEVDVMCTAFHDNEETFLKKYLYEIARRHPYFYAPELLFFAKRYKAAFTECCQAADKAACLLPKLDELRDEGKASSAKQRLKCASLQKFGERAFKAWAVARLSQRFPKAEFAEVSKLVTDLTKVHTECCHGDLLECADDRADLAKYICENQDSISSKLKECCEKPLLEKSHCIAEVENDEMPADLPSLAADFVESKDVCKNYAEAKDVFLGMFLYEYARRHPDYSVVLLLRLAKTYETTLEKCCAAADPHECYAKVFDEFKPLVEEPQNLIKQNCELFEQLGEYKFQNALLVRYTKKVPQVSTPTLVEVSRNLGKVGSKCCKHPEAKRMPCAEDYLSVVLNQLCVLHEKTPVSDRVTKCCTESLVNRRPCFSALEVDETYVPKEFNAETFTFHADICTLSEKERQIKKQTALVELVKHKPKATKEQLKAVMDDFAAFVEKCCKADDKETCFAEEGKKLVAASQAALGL

On to `CN1CN2CN(C)C[P]([Ru+2]([P](c3ccccc3)(c3ccccc3)c3ccccc3)[P](c3ccccc3)(c3ccccc3)c3ccccc3)(C1)C2.O=S(=O)([O-])C(F)(F)F.[Cl][Pd][Cl].c1cc[cH-]c1` [Compound 11, [RuCp(PPh3)2-µ-dmoPTA-1κP-2κ^2N,N′-PdCl2](CF3SO3)], for which the “Emission intensity of Trp214 relative to value in the absence of compound” value (20 µM compound (1:4 HSA:compound), 24 h, λem 340 nm) was roughly 40%. Also, the Type of quenching result (HSA-Trp214 fluorescence) was ““Dynamic” and static”. For the setting “PBS pH 7.4/2% DMSO, 24 h at 37°C”, the “Log K′B” value is 4.66 ± 0.07. The “K′B (conditional binding constant)” value (PBS pH 7.4/2% DMSO, 24 h at 37°C, fluorescence lifetime Stern–Volmer) is reported as 4.58 ± 0.33 × 10^4 M^−1. The “Concentration above which aggregate formation with HSA is seen” value (absorption spectra, only in the presence of HSA) is “higher than 10 µM”. Further, where the note is “steady-state emission, 24 h incubation”, the “Spectral shift of Trp214 emission” value is on record as “small blueshift”. The “Effect on amplitude-weighted mean fluorescence lifetime of HSA-Trp214” value (time-resolved fluorescence, λem 350 nm) is “decreased”.
